Assay results reported in patent US7022484B2, “Methods for treating neuropathological states and neurogenic inflammatory states and methods for identifying compounds useful therein” (Board of Regents, The University of Texas System, priority 2000, dated 2006).
Entries after “also recorded” stand apart in the source; their conditions may differ.

System: rat arthritis model
Assay: Paw withdrawal latency (PWL) to radiant heat in rat kaolin/carrageenan knee joint inflammation model
Assay type: in vivo
Experimental: All studies followed the guidelines of the Institute Animal Care and Use Committee, in accordance with the guidelines of the National Institutes of Health. All animals were hosted in a room with a constant ambient temperature of 22° C. and 12 hour light/dark cycle with free access to food and water. Eighty-five Sprague-Dawley rats (250–300 grams) total were used in experiments conducted for biochemical, behavioral, and immunocytochemistry studies. […] On Day 2 baseline behavioral testing was followed by infusion of agents for 1.5 hours (pretreatment) prior to induction of knee joint inflammation under brief anesthesia. Behavioral testing was repeated 4 hours after induction of joint inflammation. Anesthetized animals were either transcardially perfused with aldehydes for immunohistochemical studies or fresh, frozen tissues collected for biochemical studies.
A microdialysis fiber was implanted into the spinal dorsal horn of anesthetized rats (sodium pentobarbital, 50 mg/kg) one day prior to the induction of arthritis according to the procedure of Skilling et al. (J. Neurochem., 51:127–132 (1988)), as described in Sluka et al. (Neurosci. Lett., 145:141–144 (1992)). Briefly, a small midline incision was made in the skin over the T12 vertebral level. The vertebrae were cleared of muscle and two 1 millimeter (mm) holes were drilled in the lateral aspect of both sides of the T12 vertebrae to expose the L4 spinal segment. A microdialysis fiber ([…], 45,000 MW cut-off, Hospal, AN69, Hospal Industrie, Meyzieu, France), was passed transversely across the deep dorsal horn and stabilized with dental cement. The microdialysis fiber was then passed through the holes in the vertebrae and transversely through the dorsal horn of the spinal cord. A 2 mm section of the microdialysis fiber lies in the dorsal horn at the level of L3–4 segment. The tubing was coated with epoxy except for a permeable portion passing through the spinal grey matter. The microdialysis fiber was connected to PE20 tubing (Becton Dickinson and Company, San Mateo, Calif.) which was tunneled under the skin to the nape of the neck. Alternatively as a systemic control for drug administration, the microdialysis fiber was implanted only in the subcutaneous tissue over the back muscle and tunneled to the neck. Artificial cerebrospinal fluid (aCSF) was made as described by Sorkin et al. (J. Neurosci. Methods, 23, 131–138 (1988)) and was infused (5 microliters/minute) for 1.5 hours and then the tube was heat-sealed for use on the following day.
Dose response curves were generated for Genistein with animals receiving Genistein spinally at concentration of 0.2 mM (n=3), 0.5 mM (n=3), 1 mM (n=9), and 2 mM (n=3). Animals received Lavendustin A or B spinally at concentrations of 0.1 mM (n=3), 0.5 mM (n=3), and 1 mM (n=5) as a positive and negative control for Genistein. […] Daidzein was tested at a dose of 1 mM (n=3). […] Eight additional animals received the vehicle, 50% DMSO in aCSF, as a control.
An acute inflammatory response restricted to the knee joint can be induced by the injection of 3% kaolin and 3% carrageenan (in sterile saline; 0.1 ml; pH 7.4) into the joint cavity while the animal is briefly anesthetized with sodium methohexital (Brevital, 60 mg/kg, i.p.). Kaolin and carrageenan were obtained from Fisher Scientific, St. Louis, Mo. The knee joint is flexed manually until the rat awakes (approximately 5–10 minutes). In this arthritis model in the awake rat, localized joint swelling, as well as limping and guarding of the limb, are well developed at 4 hours (Sluka et al., Pain, 59, 95–100 (1994)) when behavioral testing begins.
Fifty-five rats were used for behavioral studies. Four hours after induction of the arthritis, the joint is swollen and increased withdrawal responses to radiant heat and spontaneous guarding of the limb were noted. The increased responsiveness to noxious stimuli indicates the presence of secondary hyperalgesia. […]

Structure (SMILES): O=c1c(-c2ccc(O)cc2)coc2cc(O)cc(O)c12 [Genistein, 5,7-Dihydroxy-3-(4-hydroxyphenyl)-4H-1-benzopyran-4-one; 4′,5,7-trihydroxy-isoflavone]
- effect on baseline PWL (after 1.5 hours infusion, before kaolin/carrageenan): did not affect baseline PWL
- most effective dose in pre-treatment animals (concentration inside the microdialysis fiber, spinal administration): 1 mM
- PWL decrease induced by knee joint inflammation (spinal microdialysis pre-treatment 1.5 hours, PWL to radiant heat 4 hours after kaolin/carrageenan): significantly (p<0.05 versus 4 hours vehicle group) attenuated the PWL decreases; also recorded: significantly attenuates the inflammation-induced decrease in PWL
- development of secondary hyperalgesia (spinal microdialysis pre-treatment, 4 hours after induction of arthritis): secondary hyperalgesia did not develop
